Values after ≈ are worked out from the molar mass of the structure shown.

The test system of one data set is Absidia ramosa. Nature of the data set: In vitro determination of minimum inhibitory concentration (MIC), serial dilution. In kind it is cell-based. Conditions: Lichtheimia ramosa, 336 h, pH 6, Absidia ramosa; pH 6.0, 22° C., 14 days. The method, then: (§1) The antimycotic activities of the compounds were measured by in vitro determination of the minimum inhibitory concentration (MIC) for yeasts, molds and dermatophytes.
(§2) 6 dermatophytes, 2 yeasts and 4 molds were used for testing with fungi, as follows:
(§3) The minimum inhibitory concentration (MIC) was determined in serial dilution tests in test tubes. The volume of the liquid nutrient medium in each test tube was 4.5 ml.
(§4) The substances were dissolved in DMSO and diluted with sterile distilled water to 10 concentrations (100, 50, 25, 12.5, 6.25, 3.12, 1.56, 0.78, 0.39 and 0.19 μg/ml). 0.5 ml of each of these dilution steps was added to liquid nutrient medium. Thus, a constant concentration of solvent in all the nutrient media was ensured, irrespective of the active compound concentration.
(§5) A comparison solution which contained only the solvent in appropriate concentration was included when carrying out each of the tests.
(§6) The individual strains were maintained on Sabouraud/beerwort agar slants and, before they were used in a test, they underwent a passage on a modified Sabouraud liquid nutrient medium. The strains were then harvested, washed and converted into a suspension of McFaerland 3 in the case of yeasts and molds and of McFaerland 4-5 in the case of dermatophytes.
(§7) The amount of material inoculated (inoculum) was 100 μl/test tube (inoculated densities: yeasts about 10^3 /ml, molds about 10^4 /ml, dermatophytes about 10^4 /ml). The pH of the liquid nutrient medium was 6.0. After inoculation had taken place the fungi were incubated at 22° C. for 14 days.
(§8) The MIC was then determined. The concentration step at which growth was no longer visible on macroscopic inspection was used for the determination of the MIC. The comparison substance used was 1-(2-(2,4-dichlorophenyl)-2-(2,4-dichlorophenylmethoxy)ethyl)-1H-imidazole(compound A).
As usually defined, the MIC is the lowest concentration found to suppress growth. In the case of `Clc1ccc(C(Cn2cncn2)NCCSc2ccc(Br)cc2)c(Cl)c1` (stereo not drawn) [Compound 36], 100 µg/mL (≈ 212 µM) was the least that counted as inhibitory (MIC).

The compound `Clc1ccc(C(Cn2ccnc2)NCCSc2ccc(Br)cc2)c(Cl)c1` (stereo not drawn) [Compound 37] yielded an MIC of 12.5 µg/mL (≈ 26.5 µM).

`COc1ccc(SCCNC(Cn2ccnc2)c2ccc(Cl)cc2Cl)cc1` (stereo not drawn) [Compound 39] displayed an MIC of 25 µg/mL (≈ 59.2 µM).

For `Cc1ccc(OCCCNC(Cn2cncn2)c2ccc(Cl)cc2Cl)cc1` (stereo not drawn) [Compound 52], the minimum inhibitory concentration (MIC) is 100 µg/mL (≈ 247 µM).

The test system of another data set is Candida albicans. Described as above. In kind it is cell-based. Conditions: 336 h, pH 6, Candida albicans, pH 6.0, 22° C., 14 days, read-out: MIC C.alb. On the procedure:
as §1, §2, §3, §4, §5, §6, §7, §8
In the case of `Clc1ccc(C(Cn2cncn2)NCCSc2ccc(Br)cc2)c(Cl)c1` (stereo not drawn) [Compound 36], the MIC was found to be 25 µg/mL (≈ 52.9 µM).

Take `Clc1ccc(C(Cn2ccnc2)NCCSc2ccc(Br)cc2)c(Cl)c1` (stereo not drawn) [Compound 37]: the MIC amounted to 6.25 µg/mL (≈ 13.3 µM).

As to `COc1ccc(SCCNC(Cn2ccnc2)c2ccc(Cl)cc2Cl)cc1` (stereo not drawn) [Compound 39], the MIC amounted to 25 µg/mL (≈ 59.2 µM).

With `Cc1ccc(OCCCNC(Cn2cncn2)c2ccc(Cl)cc2Cl)cc1` (stereo not drawn) [Compound 52], the MIC came out at 12.5 µg/mL (≈ 30.8 µM).

For another data set, the system named is Microsporum gypseum. Described as above. In kind it is cell-based. Conditions: Nannizzia gypsea, 336 h, pH 6, Microsporum gypseum; pH 6.0, 22° C., 14 days; read-out: MIC Mi.gyp. On the procedure:
as §1, §2, §3, §4, §5, §6, §7, §8
For `Clc1ccc(C(Cn2cncn2)NCCSc2ccc(Br)cc2)c(Cl)c1` (stereo not drawn) [Compound 36], the MIC was 6.25 µg/mL (≈ 13.2 µM).

`Clc1ccc(C(Cn2ccnc2)NCCSc2ccc(Br)cc2)c(Cl)c1` (stereo not drawn) [Compound 37]: the MIC was found to be 0.78 µg/mL (≈ 1.66 µM).

As for `COc1ccc(SCCNC(Cn2ccnc2)c2ccc(Cl)cc2Cl)cc1` (stereo not drawn) [Compound 39], the MIC is 6.25 µg/mL (≈ 14.8 µM).

Consider `Cc1ccc(OCCCNC(Cn2cncn2)c2ccc(Cl)cc2Cl)cc1` (stereo not drawn) [Compound 52], for which the MIC was 3.12 µg/mL (≈ 7.7 µM).

The subject of a further data set is Mucor mucedo plus. The description is as above. In kind it is cell-based. The note with it: Mucor mucedo, 336 h, pH 6, Mucor mucedo plus; pH 6.0, 22° C., 14 days. The method, then: as §1, §2, §3, §4, §5, §6, §7, §8
Regarding `Clc1ccc(C(Cn2cncn2)NCCSc2ccc(Br)cc2)c(Cl)c1` (stereo not drawn) [Compound 36], the MIC was 12.5 µg/mL.

In the case of `Clc1ccc(C(Cn2ccnc2)NCCSc2ccc(Br)cc2)c(Cl)c1` (stereo not drawn) [Compound 37], the minimum inhibitory concentration (MIC) is 6.25 µg/mL.

`COc1ccc(SCCNC(Cn2ccnc2)c2ccc(Cl)cc2Cl)cc1` (stereo not drawn) [Compound 39]: the MIC amounted to 12.5 µg/mL.

Regarding `Cc1ccc(OCCCNC(Cn2cncn2)c2ccc(Cl)cc2Cl)cc1` (stereo not drawn) [Compound 52], the minimal inhibitory concentration (MIC) was 3.12 µg/mL.

Another data set concerns Aspergillus fumigatus. Described as above. In kind it is cell-based. Conditions: 20160 min, pH 6. On the procedure: as §1, §2, §3, §4, §5, §6, §7, §8
`Clc1ccc(C(Cn2cncn2)NCCSc2ccc(Br)cc2)c(Cl)c1` (stereo not drawn) [Compound 36]: the “MIC Asp.fu.” value stood at 100 µg/mL (≈ 212 µM).

For the compound `Clc1ccc(C(Cn2ccnc2)NCCSc2ccc(Br)cc2)c(Cl)c1` (stereo not drawn) [Compound 37], the “MIC Asp.fu.” value was 6,25 μg/ml.

In the case of `COc1ccc(SCCNC(Cn2ccnc2)c2ccc(Cl)cc2Cl)cc1` (stereo not drawn) [Compound 39], the “MIC Asp.fu.” value is 12,5 μg/ml.

Turning to `Cc1ccc(OCCCNC(Cn2cncn2)c2ccc(Cl)cc2Cl)cc1` (stereo not drawn) [Compound 52], the “MIC Asp.fu.” value is on record as 6,25 μg/ml.

For a further data set, the system named is Mucor mucedo minus. The data set is described as above. In kind it is cell-based. The note with it: Mucor mucedo, 336 h, pH 6, Mucor mucedo minus; pH 6.0, 22° C., 14 days. On the procedure: as §1, §2, §3, §4, §5, §6, §7, §8
`Clc1ccc(C(Cn2cncn2)NCCSc2ccc(Br)cc2)c(Cl)c1` (stereo not drawn) [Compound 36] displayed an MIC of 50 µg/mL (≈ 106 µM).

`Clc1ccc(C(Cn2ccnc2)NCCSc2ccc(Br)cc2)c(Cl)c1` (stereo not drawn) [Compound 37] showed an MIC of 6.25 µg/mL (≈ 13.3 µM).

In the case of `COc1ccc(SCCNC(Cn2ccnc2)c2ccc(Cl)cc2Cl)cc1` (stereo not drawn) [Compound 39], the MIC came out at 12.5 µg/mL (≈ 29.6 µM).

`Cc1ccc(OCCCNC(Cn2cncn2)c2ccc(Cl)cc2Cl)cc1` (stereo not drawn) [Compound 52] registered an MIC of 12.5 µg/mL (≈ 30.8 µM).

The next data set relates to Trichophyton rubrum. The description is as above. In kind it is cell-based. The note with it: 336 h, pH 6, Trichophyton rubrum, pH 6.0, 22° C., 14 days. On the procedure: as §1, §2, §3, §4, §5, §6, §7, §8
As for `Clc1ccc(C(Cn2cncn2)NCCSc2ccc(Br)cc2)c(Cl)c1` (stereo not drawn) [Compound 36], it took 6.25 µg/mL (≈ 13.2 µM) to inhibit growth (MIC).

For the compound `Clc1ccc(C(Cn2ccnc2)NCCSc2ccc(Br)cc2)c(Cl)c1` (stereo not drawn) [Compound 37], the MIC was 1.56 µg/mL (≈ 3.31 µM).

In turn, `COc1ccc(SCCNC(Cn2ccnc2)c2ccc(Cl)cc2Cl)cc1` (stereo not drawn) [Compound 39] came in with an MIC of 6.25 µg/mL (≈ 14.8 µM).

As to `Cc1ccc(OCCCNC(Cn2cncn2)c2ccc(Cl)cc2Cl)cc1` (stereo not drawn) [Compound 52], inhibition of growth (MIC) required 3.12 µg/mL (≈ 7.7 µM).

The subject of a further data set is Epidermophyton floccosum. The data set is described as above. Conditions: 336 h, pH 6, Epidermophyton floccosum, pH 6.0, 22° C., 14 days. In kind it is cell-based. On the procedure: as §1, §2, §3, §4, §5, §6, §7, §8
On to `Clc1ccc(C(Cn2cncn2)NCCSc2ccc(Br)cc2)c(Cl)c1` (stereo not drawn) [Compound 36], for which the MIC amounted to 12.5 µg/mL (≈ 26.5 µM).

For `Clc1ccc(C(Cn2ccnc2)NCCSc2ccc(Br)cc2)c(Cl)c1` (stereo not drawn) [Compound 37], the MIC was 1.56 µg/mL (≈ 3.31 µM).

The compound `COc1ccc(SCCNC(Cn2ccnc2)c2ccc(Cl)cc2Cl)cc1` (stereo not drawn) [Compound 39] displayed an MIC of 12.5 µg/mL (≈ 29.6 µM).

In turn, `Cc1ccc(OCCCNC(Cn2cncn2)c2ccc(Cl)cc2Cl)cc1` (stereo not drawn) [Compound 52] showed an MIC of 3.12 µg/mL (≈ 7.7 µM).

A further data set deals with Candida tropicalis. Described as above. In kind it is cell-based. The note with it: 336 h, pH 6, Candida tropicalis, pH 6.0, 22° C., 14 days, read-out: MIC C.trop. The method, then: as §1, §2, §3, §4, §5, §6, §7, §8
Turning to `Clc1ccc(C(Cn2cncn2)NCCSc2ccc(Br)cc2)c(Cl)c1` (stereo not drawn) [Compound 36], the MIC was found to be 12.5 µg/mL (≈ 26.5 µM).

Consider `Clc1ccc(C(Cn2ccnc2)NCCSc2ccc(Br)cc2)c(Cl)c1` (stereo not drawn) [Compound 37], for which the MIC was determined as 6.25 µg/mL (≈ 13.3 µM).

For the compound `COc1ccc(SCCNC(Cn2ccnc2)c2ccc(Cl)cc2Cl)cc1` (stereo not drawn) [Compound 39], the MIC came out at 12.5 µg/mL (≈ 29.6 µM).

Consider `Cc1ccc(OCCCNC(Cn2cncn2)c2ccc(Cl)cc2Cl)cc1` (stereo not drawn) [Compound 52], for which the MIC was determined as 6.25 µg/mL (≈ 15.4 µM).

For another data set, the system named is Trichophyton verrucosum. The data set is described as above. In kind it is cell-based. Conditions: 336 h, pH 6, Trichophyton verrucosum, pH 6.0, 22° C., 14 days. On the procedure: as §1, §2, §3, §4, §5, §6, §7, §8
`Clc1ccc(C(Cn2cncn2)NCCSc2ccc(Br)cc2)c(Cl)c1` (stereo not drawn) [Compound 36]: the MIC turned out to be 12.5 µg/mL (≈ 26.5 µM).

`Clc1ccc(C(Cn2ccnc2)NCCSc2ccc(Br)cc2)c(Cl)c1` (stereo not drawn) [Compound 37] displayed an MIC of 1.56 µg/mL (≈ 3.31 µM).

In turn, `COc1ccc(SCCNC(Cn2ccnc2)c2ccc(Cl)cc2Cl)cc1` (stereo not drawn) [Compound 39] had an MIC of 6.25 µg/mL (≈ 14.8 µM).

The compound `Cc1ccc(OCCCNC(Cn2cncn2)c2ccc(Cl)cc2Cl)cc1` (stereo not drawn) [Compound 52] had an MIC of 3.12 µg/mL (≈ 7.7 µM).

The next data set has as its system Trichophyton mentagrophytes. Described as above. In kind it is cell-based. The note with it: 336 h, pH 6, Trichophyton mentagrophytes, pH 6.0, 22° C., 14 days. The method, then: as §1, §2, §3, §4, §5, §6, §7, §8
Turning to `Clc1ccc(C(Cn2cncn2)NCCSc2ccc(Br)cc2)c(Cl)c1` (stereo not drawn) [Compound 36], the minimal inhibitory concentration (MIC) worked out at 25 µg/mL (≈ 52.9 µM).

As for `Clc1ccc(C(Cn2ccnc2)NCCSc2ccc(Br)cc2)c(Cl)c1` (stereo not drawn) [Compound 37], 1.56 µg/mL (≈ 3.31 µM) was the least that counted as inhibitory (MIC).

Turning to `COc1ccc(SCCNC(Cn2ccnc2)c2ccc(Cl)cc2Cl)cc1` (stereo not drawn) [Compound 39], the lowest concentration to inhibit growth (MIC) was 6.25 µg/mL (≈ 14.8 µM).

The compound `Cc1ccc(OCCCNC(Cn2cncn2)c2ccc(Cl)cc2Cl)cc1` (stereo not drawn) [Compound 52] gave an MIC of 6.25 µg/mL (≈ 15.4 µM).

In the next data set the test system is Microsporum canis. The description is as above. The note with it: 336 h, pH 6, Microsporum canis, pH 6.0, 22° C., 14 days. In kind it is cell-based. On the procedure: as §1, §2, §3, §4, §5, §6, §7, §8
For the compound `Clc1ccc(C(Cn2cncn2)NCCSc2ccc(Br)cc2)c(Cl)c1` (stereo not drawn) [Compound 36], the MIC was found to be 100 µg/mL (≈ 212 µM).

For the compound `Clc1ccc(C(Cn2ccnc2)NCCSc2ccc(Br)cc2)c(Cl)c1` (stereo not drawn) [Compound 37], the minimum inhibitory concentration (MIC) stood at 6.25 µg/mL (≈ 13.3 µM).

Turning to `COc1ccc(SCCNC(Cn2ccnc2)c2ccc(Cl)cc2Cl)cc1` (stereo not drawn) [Compound 39], the MIC turned out to be 12.5 µg/mL (≈ 29.6 µM).

On to `Cc1ccc(OCCCNC(Cn2cncn2)c2ccc(Cl)cc2Cl)cc1` (stereo not drawn) [Compound 52], for which the minimal inhibitory concentration (MIC) is 3.12 µg/mL (≈ 7.7 µM).
